Test results from the NIST ThermoML archive (doi:10.1021/je060271a).
“And” between values parts separate entries of the source, which are not always exact repeats. Equal entries are not always repeated.

Settings: Liquid, Vibrating tube method

CCCCCCC(=O)OCC(COC(=O)CCCCCC)(COC(=O)CCCCCC)COC(=O)CCCCCC [pentaerythritol tetraheptanoate]
Settings	mass density
303.15 K, 31425 kPa	989 kg/m3
303.15 K, 31458 kPa	989.1 kg/m3
303.15 K, 31487 kPa	989.1 kg/m3
303.15 K, 31515 kPa	989 kg/m3
303.15 K, 31543 kPa	989.1 kg/m3
303.15 K, 31577 kPa	989.1 kg/m3
303.15 K, 31605 kPa	989 kg/m3
303.15 K, 31639 kPa	989.1 kg/m3
303.15 K, 31667 kPa	989.1 kg/m3
303.15 K, 31696 kPa	989.1 kg/m3
303.15 K, 31724 kPa	989.2 kg/m3
303.15 K, 31759 kPa	989.2 kg/m3
303.15 K, 31788 kPa	989.2 kg/m3
303.15 K, 31817 kPa	989.3 kg/m3
303.15 K, 31846 kPa	989.3 kg/m3
303.15 K, 31880 kPa	989.3 kg/m3
303.15 K, 31909 kPa	989.3 kg/m3
303.15 K, 31938 kPa	989.3 kg/m3
303.15 K, 31973 kPa	989.4 kg/m3
303.15 K, 32002 kPa	989.3 kg/m3
303.15 K, 32036 kPa	989.4 kg/m3
303.15 K, 32065 kPa	989.4 kg/m3
303.15 K, 32094 kPa	989.3 kg/m3
303.15 K, 32128 kPa	989.5 kg/m3
303.15 K, 32158 kPa	989.4 kg/m3
303.15 K, 32186 kPa	989.4 kg/m3
303.15 K, 32221 kPa	989.4 kg/m3
303.15 K, 32250 kPa	989.5 kg/m3
303.15 K, 32280 kPa	989.5 kg/m3
303.15 K, 32316 kPa	989.5 kg/m3
303.15 K, 32345 kPa	989.5 kg/m3
303.15 K, 32375 kPa	989.4 kg/m3
303.15 K, 32405 kPa	989.5 kg/m3
303.15 K, 32440 kPa	989.6 kg/m3
303.15 K, 32470 kPa	989.6 kg/m3
303.15 K, 32500 kPa	989.5 kg/m3
303.15 K, 32536 kPa	989.7 kg/m3
303.15 K, 32566 kPa	989.6 kg/m3
303.15 K, 32602 kPa	989.7 kg/m3
303.15 K, 32632 kPa	989.6 kg/m3
303.15 K, 32661 kPa	989.6 kg/m3
303.15 K, 32691 kPa	989.7 kg/m3
303.15 K, 32727 kPa	989.7 kg/m3
303.15 K, 32757 kPa	989.6 kg/m3
303.15 K, 32787 kPa	989.8 kg/m3
303.15 K, 32824 kPa	989.8 kg/m3
303.15 K, 32854 kPa	989.8 kg/m3
303.15 K, 32890 kPa	989.8 kg/m3
303.15 K, 32920 kPa	989.7 kg/m3
303.15 K, 32951 kPa	989.7 kg/m3
303.15 K, 32984 kPa	989.9 kg/m3
303.15 K, 33014 kPa	989.7 kg/m3
303.15 K, 33051 kPa	989.9 kg/m3
303.15 K, 33082 kPa	990 kg/m3
303.15 K, 33112 kPa	989.9 kg/m3
303.15 K, 33149 kPa	990 kg/m3
303.15 K, 33180 kPa	990 kg/m3
303.15 K, 33217 kPa	990 kg/m3
303.15 K, 33248 kPa	989.9 kg/m3
303.15 K, 33279 kPa	990.1 kg/m3
303.15 K, 33317 kPa	990 kg/m3
303.15 K, 33348 kPa	990 kg/m3
303.15 K, 33381 kPa	990 kg/m3
303.15 K, 33413 kPa	990 kg/m3
303.15 K, 33450 kPa	990.1 kg/m3
303.15 K, 33482 kPa	990 kg/m3
303.15 K, 33514 kPa	990.2 kg/m3
303.15 K, 33546 kPa	990.1 kg/m3
303.15 K, 33584 kPa	990.1 kg/m3
303.15 K, 33616 kPa	990.2 kg/m3
303.15 K, 33648 kPa	990.2 kg/m3
303.15 K, 33686 kPa	990.2 kg/m3
303.15 K, 33718 kPa	990.2 kg/m3
303.15 K, 33756 kPa	990.2 kg/m3
303.15 K, 33788 kPa	990.2 kg/m3
303.15 K, 33820 kPa	990.3 kg/m3
303.15 K, 33852 kPa	990.3 kg/m3
303.15 K, 33890 kPa	990.4 kg/m3
303.15 K, 33921 kPa	990.4 kg/m3
303.15 K, 33952 kPa	990.5 kg/m3
303.15 K, 33993 kPa	990.4 kg/m3
303.15 K, 34038 kPa	990.4 kg/m3
303.15 K, 34093 kPa	990.4 kg/m3
303.15 K, 34123 kPa	990.4 kg/m3
303.15 K, 34208 kPa	990.5 kg/m3
303.15 K, 34249 kPa	990.5 kg/m3
303.15 K, 34280 kPa	990.6 kg/m3
303.15 K, 34305 kPa	990.5 kg/m3
303.15 K, 34336 kPa	990.6 kg/m3
303.15 K, 34363 kPa	990.5 kg/m3
303.15 K, 34390 kPa	990.7 kg/m3
303.15 K, 34423 kPa	990.6 kg/m3
303.15 K, 34452 kPa	990.7 kg/m3
303.15 K, 34482 kPa	990.6 kg/m3
303.15 K, 34512 kPa	990.7 kg/m3
303.15 K, 34545 kPa	990.6 kg/m3
303.15 K, 34553 kPa	990.8 kg/m3
303.15 K, 34554 kPa	990.7 kg/m3
303.15 K, 34556 kPa	990.7 kg/m3
323.14 K, 99.4 kPa	955.6 kg/m3 and 955.7 kg/m3
323.14 K, 99.5 kPa	955.7 kg/m3 and 955.6 kg/m3
323.14 K, 99.7 kPa	955.7 kg/m3 [middle of 4 runs]
323.14 K, 99.9 kPa	955.7 kg/m3 [middle of 4 runs]
323.14 K, 100 kPa	955.7 kg/m3 and 955.8 kg/m3 and 955.6 kg/m3
323.14 K, 100.1 kPa	955.7 kg/m3
323.14 K, 100.2 kPa	955.6 kg/m3 and 955.7 kg/m3
323.14 K, 100.4 kPa	955.7 kg/m3
323.14 K, 101.1 kPa	955.6 kg/m3
323.14 K, 135.4 kPa	955.7 kg/m3
323.14 K, 135.5 kPa	955.7 kg/m3
323.14 K, 137.4 kPa	955.7 kg/m3
